In ChEMBL document CHEMBL3421546 (Bioorg Med Chem Lett, 2015):
Converted amounts (≈) assume the structure as drawn.

Experiments:
[1] = Selectivity index, ratio of CC50 for human HeLa cells to IC50 for CQ-sensitive Plasmodium falciparum 3D7; type: functional
[2] = Cytotoxic activity against human HeLa cells assessed as cell viability at 1 ug/ml incubated for 24 hrs by MTT assay; type: cell-based; settings: read-out: Activity
[3] = Cytotoxic activity against human HeLa cells assessed as cell viability at 1000 ug/ml incubated for 24 hrs by MTT assay; type: cell-based; settings: read-out: Activity
[4] = Cytotoxic activity against human HeLa cells assessed as cell viability at 10 ug/ml incubated for 24 hrs by MTT assay; type: cell-based; settings: read-out: Activity
Plasmodium falciparum [5] = test: Antimalarial activity against CQ-sensitive Plasmodium falciparum 3D7 cultivated in human type O+ red blood cells assessed as reduction in parasite infection incubated for 48 hrs by microscopy; type: functional, organism-based; settings: 3D7, 48 h
[6] = Cytotoxic activity against human HeLa cells assessed as cell viability at 100 ug/ml incubated for 24 hrs by MTT assay; type: cell-based; settings: read-out: Activity
[7] = Cytotoxic activity against human HeLa cells assessed as cell viability at 0.1 ug/ml incubated for 24 hrs by MTT assay; type: cell-based; settings: read-out: Activity
[8] = Cytotoxic activity against human HeLa cells assessed as reduction in cell viability incubated for 24 hrs by MTT assay; type: cell-based
[9] = Cytotoxic activity against human HepG2 cells assessed as cell viability at 1000 ug/ml incubated for 24 hrs by MTT assay; type: cell-based; settings: read-out: Activity
[10] = Cytotoxic activity against human HepG2 cells assessed as cell viability at 1 ug/ml incubated for 24 hrs by MTT assay; type: cell-based; settings: read-out: Activity
[11] = Cytotoxic activity against human HepG2 cells assessed as cell viability at 100 ug/ml incubated for 24 hrs by MTT assay; type: cell-based; settings: read-out: Activity
[12] = Cytotoxic activity against human HepG2 cells assessed as cell viability at 0.1 ug/ml incubated for 24 hrs by MTT assay; type: cell-based; settings: read-out: Activity
[13] = Cytotoxic activity against human HepG2 cells assessed as cell viability at 10 ug/ml incubated for 24 hrs by MTT assay; type: cell-based; settings: read-out: Activity
[14] = Cytotoxic activity against human HepG2 cells assessed as reduction in cell viability incubated for 24 hrs by MTT assay; type: cell-based
[15] = Selectivity index, ratio of CC50 for human HepG2 cells to IC50 for CQ-sensitive Plasmodium falciparum 3D7; type: functional
Plasmodium falciparum [16] = test: Antimalarial activity against CQ-resistant Plasmodium falciparum W2 cultivated in human type O+ red blood cells assessed as reduction in parasite infection incubated for 48 hrs by microscopy; type: functional, organism-based; settings: W2, 48 h
Plasmodium berghei [17] = test: Antimalarial activity against Plasmodium berghei NK65 infected in Swiss albino mouse assessed as inhibition of parasitemia at 10 mg/kg, po dosed for four consecutive days beginning on first day of infection and measured on day 7 post infection relative to untreated control; type: functional; settings: NK65, 168 h
Plasmodium berghei [18] = test: Antimalarial activity against Plasmodium berghei NK65 infected in Swiss albino mouse assessed as parasitemia level at 10 mg/kg, po dosed for four consecutive days beginning on first day of infection and measured on day 12 post infection (reference value: 8.81 +/- 1.17%); type: functional
Mus musculus [19] = test: Toxicity in Plasmodium berghei NK65 infected Swiss albino mouse assessed as mouse mortality at 10 mg/kg, po dosed for four consecutive days beginning on first day of infection and measured on day 7 post infection relative to untreated control; type: organism-based; set-up: dose 10 mg/kg, route oral; settings: in vivo
Mus musculus [20] = test: Toxicity in Plasmodium berghei NK65 infected Swiss albino mouse assessed as mouse survival at 10 mg/kg, po dosed for four consecutive days beginning on first day of infection and measured on day 7 post infection relative to untreated control; type: organism-based; set-up: dose 10 mg/kg, route oral; settings: in vivo
Plasmodium berghei [21] = test: Antimalarial activity against Plasmodium berghei NK65 infected in Swiss albino mouse assessed as inhibition of parasitemia at 10 mg/kg, po dosed for four consecutive days beginning on first day of infection and measured on day 12 post infection relative to untreated control; type: functional; settings: NK65, 288 h
Mus musculus [22] = test: Toxicity in Plasmodium berghei NK65 infected Swiss albino mouse assessed as mouse survival at 10 mg/kg, po dosed for four consecutive days beginning on first day of infection and measured on day 12 post infection relative to untreated control; type: organism-based; set-up: dose 10 mg/kg, route oral; settings: in vivo
Plasmodium berghei [23] = test: Antimalarial activity against Plasmodium berghei NK65 infected in Swiss albino mouse assessed as parasitemia level at 10 mg/kg, po dosed for four consecutive days beginning on first day of infection and measured on day 7 post infection (reference value: 5.42 +/- 0.79%); type: functional
Mus musculus [24] = test: Toxicity in Plasmodium berghei NK65 infected Swiss albino mouse assessed as mouse mortality at 10 mg/kg, po dosed for four consecutive days beginning on first day of infection and measured on day 12 post infection relative to untreated control; type: organism-based; set-up: dose 10 mg/kg, route oral; settings: in vivo

SMILES: O=S(=O)(Nc1nccs1)c1ccc(Nc2ccnc3cc(Cl)ccc23)cc1
- Ratio CC50/IC50 [1]: 56
- viability at 24 h, 1 ug/ml [2]: 71%
- viability at 24 h, 1000 ug/ml [3]: 12%
- viability at 24 h, 10 ug/ml [4]: 60%
- IC50 (Plasmodium falciparum [5]): 5.97 µg/mL (≈ 14.3 µM)
- viability at 24 h, 100 ug/ml [6]: 65%
- viability at 24 h, 0.1 ug/ml [7]: 74%
- CC50 at 24 h [8]: 334 µg/mL (≈ 801 µM)

SMILES: NS(=O)(=O)c1ccc(Nc2ccnc3cc(Cl)ccc23)cc1
- Ratio CC50/IC50 [1]: 364
- viability at 24 h, 1000 ug/ml [9]: 43%
- viability at 24 h, 1 ug/ml [10]: 94%
- viability at 24 h, 100 ug/ml [11]: 65%
- viability at 24 h, 0.1 ug/ml [12]: 93%
- viability at 24 h, 1 ug/ml [2]: 95%
- viability at 24 h, 1000 ug/ml [3]: 37%
- viability at 24 h, 10 ug/ml [4]: 100%
- viability at 24 h, 10 ug/ml [13]: 85%
- IC50 (Plasmodium falciparum [5]): 2.18 µg/mL (≈ 6.53 µM)
- viability at 24 h, 100 ug/ml [6]: 91%
- CC50 at 24 h [14]: 234 µg/mL (≈ 701 µM)
- viability at 24 h, 0.1 ug/ml [7]: 93%
- Ratio CC50/IC50 [15]: 112
- CC50 at 24 h [8]: 793 µg/mL (≈ 2380 µM)

SMILES: O=S(=O)(Nc1ccccn1)c1ccc(Nc2ccnc3cc(Cl)ccc23)cc1
- Ratio CC50/IC50 [1]: 31
- viability at 24 h, 1000 ug/ml [9]: 48%
- viability at 24 h, 1 ug/ml [10]: 97%
- viability at 24 h, 100 ug/ml [11]: 57%
- viability at 24 h, 0.1 ug/ml [12]: 92%
- viability at 24 h, 1 ug/ml [2]: 78%
- viability at 24 h, 1000 ug/ml [3]: 11%
- viability at 24 h, 10 ug/ml [4]: 68%
- viability at 24 h, 10 ug/ml [13]: 86%
- IC50 (Plasmodium falciparum [5]): 3.64 µg/mL (≈ 8.86 µM)
- viability at 24 h, 100 ug/ml [6]: 53%
- CC50 at 24 h [14]: 252 µg/mL (≈ 613 µM)
- viability at 24 h, 0.1 ug/ml [7]: 82%
- Ratio CC50/IC50 [15]: 69
- CC50 at 24 h [8]: 113 µg/mL (≈ 275 µM)

SMILES: O=S(=O)(Nc1ncccn1)c1ccc(Nc2ccnc3cc(Cl)ccc23)cc1
- Ratio CC50/IC50 [1]: 30
- viability at 24 h, 1000 ug/ml [9]: 68%
- viability at 24 h, 1 ug/ml [10]: 90%
- viability at 24 h, 100 ug/ml [11]: 75%
- viability at 24 h, 0.1 ug/ml [12]: 85%
- viability at 24 h, 1 ug/ml [2]: 82%
- viability at 24 h, 1000 ug/ml [3]: 22%
- viability at 24 h, 10 ug/ml [4]: 76%
- viability at 24 h, 10 ug/ml [13]: 89%
- IC50 (Plasmodium falciparum [5]): 16.3 µg/mL (≈ 39.6 µM)
- viability at 24 h, 100 ug/ml [6]: 75%
- CC50 at 24 h [14]: > 1000 µg/mL
- viability at 24 h, 0.1 ug/ml [7]: 85%
- Ratio CC50/IC50 [15]: >61
- CC50 at 24 h [8]: 494 µg/mL (≈ 1200 µM)

SMILES: Cc1cc(NS(=O)(=O)c2ccc(Nc3ccnc4cc(Cl)ccc34)cc2)no1
- Ratio CC50/IC50 [1]: 12
- viability at 24 h, 1 ug/ml [2]: 72%
- viability at 24 h, 1000 ug/ml [3]: 17%
- viability at 24 h, 10 ug/ml [4]: 59%
- IC50 (Plasmodium falciparum [5]): 23.8 µg/mL (≈ 57.5 µM)
- viability at 24 h, 100 ug/ml [6]: 61%
- viability at 24 h, 0.1 ug/ml [7]: 67%
- CC50 at 24 h [8]: 290 µg/mL (≈ 699 µM)

SMILES: C[C@H]1[C@H](OC(=O)CCC(=O)O)O[C@@H]2O[C@@]3(C)CC[C@H]4[C@H](C)CC[C@@H]1[C@@]24OO3 [ARTESUNATE]
- IC50 (Plasmodium falciparum [16]): < 0.39 µg/mL

SMILES: CCN(CC)CCCC(C)Nc1ccnc2cc(Cl)ccc12 (centres undefined) [CHLOROQUINE]
- Ratio CC50/IC50 [1]: >1000
- viability at 24 h, 1000 ug/ml [9]: 60%
- viability at 24 h, 1 ug/ml [10]: 97%
- viability at 24 h, 100 ug/ml [11]: 67%
- inhibition in vivo at 10 mg/kg (Plasmodium berghei [17]): 68%
- viability at 24 h, 0.1 ug/ml [12]: 93%
- viability at 24 h, 1 ug/ml [2]: 94%
- viability at 24 h, 1000 ug/ml [3]: 92%
- viability at 24 h, 10 ug/ml [4]: 97%
- Activity (Plasmodium berghei [18]): 1.55%
- Activity (Mus musculus [19]): Non-toxic
- IC50 (Plasmodium falciparum [16]): < 0.39 µg/mL
- Activity (Mus musculus [20]): Non-toxic
- viability at 24 h, 10 ug/ml [13]: 92%
- IC50 (Plasmodium falciparum [5]): < 0.19 µg/mL
- viability at 24 h, 100 ug/ml [6]: 100%
- inhibition in vivo at 10 mg/kg (Plasmodium berghei [21]): 82%
- Activity (Mus musculus [22]): Non-toxic
- CC50 at 24 h [14]: > 1000 µg/mL
- viability at 24 h, 0.1 ug/ml [7]: 98%
- Ratio CC50/IC50 [15]: >1000
- Activity (Plasmodium berghei [23]): 1.72%
- Activity (Mus musculus [24]): Non-toxic
- CC50 at 24 h [8]: > 1000 µg/mL

SMILES: NNC(=O)c1cccnc1 [NICOTINIC ACID HYDRAZIDE]
- Ratio CC50/IC50 [1]: <3.06
- viability at 24 h, 1 ug/ml [2]: 87%
- viability at 24 h, 1000 ug/ml [3]: 25%
- viability at 24 h, 10 ug/ml [4]: 92%
- IC50 (Plasmodium falciparum [5]): > 50 µg/mL
- viability at 24 h, 100 ug/ml [6]: 58%
- viability at 24 h, 0.1 ug/ml [7]: 88%
- CC50 at 24 h [8]: 153 µg/mL (≈ 1120 µM)
